Measurements: ChEMBL document CHEMBL3885881, “DrugMatrix”

Species on record: Rattus norvegicus
Experiment: DrugMatrix - Regimen: Daily Repeat
Assay type: toxicity, organism-based, Sprague-Dawley
Set-up: regimen Daily Repeat, gender Male, age 6-8 weeks
Conditions: in vivo, iv, vehicle 100 % SALINE; for URIC ACID / ALANINE AMINOTRANSFERASE / ALBUMIN / ALKALINE PHOSPHATASE / ASPARTATE AMINOTRANSFERASE / BLOOD UREA NITROGEN / CARBON DIOXIDE / CHLORIDE / CHOLESTEROL / CREATINE PHOSPHOKINASE / CREATININE / GLUCOSE / LACTATE DEHYDROGENASE / LIPASE / PHOSPHORUS / POTASSIUM / SODIUM / TOTAL BILIRUBIN / TOTAL PROTEIN: tissue Plasma; for ABSOLUTE BASOPHIL / ABSOLUTE EOSINOPHIL / ABSOLUTE LYMPHOCYTE / ABSOLUTE MONOCYTE / ABSOLUTE SEGMENTED NEUTROPHIL / BASOPHIL / EOSINOPHIL / ERYTHROCYTE COUNT / HEMATOCRIT / HEMOGLOBIN / LEUKOCYTE COUNT / LYMPHOCYTE / MEAN CORPUSCULAR HEMOGLOBIN / MEAN CORPUSCULAR HEMOGLOBIN CONCENTRATION / MEAN CORPUSCULAR VOLUME / MONOCYTE / NEUTROPHIL / NUCLEATED RED BLOOD CELLS / PLATELET COUNT: tissue Blood
[1] = 2 mg/kg, 120 h, dose level Low, time 5 day
[2] = 44 mg/kg, 72 h, dose level High, time 3 day
[3] = 44 mg/kg, 120 h, dose level High, time 5 day

With Cc1ccc(N(CC2=NCCN2)c2cccc(O)c2)cc1 [PHENTOLAMINE] the “URIC ACID” value (2 mg/kg, 72 h, dose level Low, time 3 day) was 1.4 mg/dL, the “ABSOLUTE BASOPHIL” value [1] was 0 CELLS/uL and the “ABSOLUTE EOSINOPHIL” value [1] was 0 CELLS/uL. The “ABSOLUTE LYMPHOCYTE” value [1] was 13096 CELLS/uL, the “ABSOLUTE MONOCYTE” value [1] was 288 CELLS/uL and the “ABSOLUTE SEGMENTED NEUTROPHIL” value [1] was 1016 CELLS/uL. The BASOPHIL [1] was 0%, the EOSINOPHIL [1] was 0% and the “ERYTHROCYTE COUNT” value [1] was 6.03 x10E6/uL. The HEMATOCRIT [1] was 38.17%, the HEMOGLOBIN [1] was 14.2 G/DL and the “LEUKOCYTE COUNT” value [1] was 14.4 x10E3/uL. The LYMPHOCYTE [1] was 91%, the “MEAN CORPUSCULAR HEMOGLOBIN” value [1] was 23.53 pg and the “MEAN CORPUSCULAR HEMOGLOBIN CONCENTRATION” value [1] was 37.2 G/DL. For the same compound, the “MEAN CORPUSCULAR VOLUME” value [1] was 63.3 fL, the MONOCYTE [1] was 2% and the NEUTROPHIL [1] was 7%. For the same compound, the “NUCLEATED RED BLOOD CELLS” value [1] was 0.67 /100WBC, the “PLATELET COUNT” value [1] was 1406 x10E3/uL and the “ALANINE AMINOTRANSFERASE” value [1] was 51.67 u/L. For the same compound, the ALBUMIN [1] was 4.47 G/DL, the “ALKALINE PHOSPHATASE” value [1] was 440 u/L and the “ASPARTATE AMINOTRANSFERASE” value [1] was 80 u/L. For the same compound, the “BLOOD UREA NITROGEN” value [1] was 16.67 mg/dL, the “CARBON DIOXIDE” value [1] was 20.33 mmol/L and the CHLORIDE [1] was 102.67 MEQ/L. The CHOLESTEROL [1] was 64.33 mg/dL, the “CREATINE PHOSPHOKINASE” value [1] was 255.33 u/L and the CREATININE [1] was 0.17 mg/dL. For the same compound, the GLUCOSE [1] was 170.33 mg/dL, the “LACTATE DEHYDROGENASE” value [1] was 112.33 u/L and the LIPASE [1] was 10 u/L. The PHOSPHORUS [1] was 12.37 mg/dL, the POTASSIUM [1] was 6.89 MEQ/L and the SODIUM [1] was 145.97 MEQ/L. The “TOTAL BILIRUBIN” value [1] was 0.23 mg/dL, the “URIC ACID” value [1] was 1.8 mg/dL and the “ABSOLUTE BASOPHIL” value [2] was 0 CELLS/uL. The “ABSOLUTE EOSINOPHIL” value [2] was 0 CELLS/uL, the “ABSOLUTE LYMPHOCYTE” value [2] was 13788 CELLS/uL and the “ABSOLUTE MONOCYTE” value [2] was 136.33 CELLS/uL. The “ABSOLUTE SEGMENTED NEUTROPHIL” value [2] was 1109 CELLS/uL, the BASOPHIL [2] was 0% and the EOSINOPHIL [2] was 0%. The “ERYTHROCYTE COUNT” value [2] was 5.51 x10E6/uL, the HEMATOCRIT [2] was 35.77% and the HEMOGLOBIN [2] was 13.13 G/DL. The “LEUKOCYTE COUNT” value [2] was 15.03 x10E3/uL, the LYMPHOCYTE [2] was 91.33% and the “MEAN CORPUSCULAR HEMOGLOBIN” value [2] was 23.9 pg. The “MEAN CORPUSCULAR HEMOGLOBIN CONCENTRATION” value [2] was 36.73 G/DL, the “MEAN CORPUSCULAR VOLUME” value [2] was 65 fL and the MONOCYTE [2] was 1%. The NEUTROPHIL [2] was 7.67%, the “NUCLEATED RED BLOOD CELLS” value [2] was 0.67 /100WBC and the “PLATELET COUNT” value [2] was 1392 x10E3/uL. For the same compound, the “ALANINE AMINOTRANSFERASE” value [2] was 54.67 u/L, the ALBUMIN [2] was 4.3 G/DL and the “ALKALINE PHOSPHATASE” value [2] was 373 u/L. For the same compound, the “ASPARTATE AMINOTRANSFERASE” value [2] was 66.67 u/L, the “BLOOD UREA NITROGEN” value [2] was 17.33 mg/dL and the “CARBON DIOXIDE” value [2] was 20.33 mmol/L. For the same compound, the CHLORIDE [2] was 100.67 MEQ/L, the CHOLESTEROL [2] was 81.33 mg/dL and the “CREATINE PHOSPHOKINASE” value [2] was 188.33 u/L. For the same compound, the CREATININE [2] was 0.22 mg/dL, the GLUCOSE [2] was 163.67 mg/dL and the “LACTATE DEHYDROGENASE” value [2] was 78 u/L. It also gave an LIPASE [2] of 10.67 u/L, a PHOSPHORUS [2] of 10.77 mg/dL and a POTASSIUM [2] of 6.6 MEQ/L. For the same compound, the SODIUM [2] was 143.67 MEQ/L, the “TOTAL BILIRUBIN” value [2] was 0.23 mg/dL and the “TOTAL PROTEIN” value [2] was 6.03 G/DL. For the same compound, the “URIC ACID” value [2] was 1.53 mg/dL, the “ABSOLUTE BASOPHIL” value [3] was 0 CELLS/uL and the “ABSOLUTE EOSINOPHIL” value [3] was 0 CELLS/uL. For the same compound, the “ABSOLUTE LYMPHOCYTE” value [3] was 13982.67 CELLS/uL, the “ABSOLUTE MONOCYTE” value [3] was 349.33 CELLS/uL and the “ABSOLUTE SEGMENTED NEUTROPHIL” value [3] was 3068 CELLS/uL. For the same compound, the BASOPHIL [3] was 0%, the EOSINOPHIL [3] was 0% and the “ERYTHROCYTE COUNT” value [3] was 5.76 x10E6/uL. For the same compound, the HEMATOCRIT [3] was 36.83%, the HEMOGLOBIN [3] was 13.87 G/DL and the “LEUKOCYTE COUNT” value [3] was 17.4 x10E3/uL. For the same compound, the LYMPHOCYTE [3] was 81.33%, the “MEAN CORPUSCULAR HEMOGLOBIN” value [3] was 24.1 pg and the “MEAN CORPUSCULAR HEMOGLOBIN CONCENTRATION” value [3] was 37.67 G/DL. For the same compound, the “MEAN CORPUSCULAR VOLUME” value [3] was 64.07 fL, the MONOCYTE [3] was 2% and the NEUTROPHIL [3] was 16.67%. For the same compound, the “NUCLEATED RED BLOOD CELLS” value [3] was 0 /100WBC, the “PLATELET COUNT” value [3] was 1344.67 x10E3/uL and the “ALANINE AMINOTRANSFERASE” value [3] was 54.67 u/L. The ALBUMIN [3] was 4.33 G/DL, the “ALKALINE PHOSPHATASE” value [3] was 353 u/L and the “ASPARTATE AMINOTRANSFERASE” value [3] was 75.67 u/L. The “BLOOD UREA NITROGEN” value [3] was 16.33 mg/dL, the “CARBON DIOXIDE” value [3] was 29.33 mmol/L and the CHLORIDE [3] was 103.33 MEQ/L. The CHOLESTEROL [3] was 81 mg/dL, the “CREATINE PHOSPHOKINASE” value [3] was 410.67 u/L and the CREATININE [3] was 0.19 mg/dL. The GLUCOSE [3] was 200.33 mg/dL, the “LACTATE DEHYDROGENASE” value [3] was 220.67 u/L and the LIPASE [3] was 11 u/L. It also gave a PHOSPHORUS [3] of 11.43 mg/dL, a POTASSIUM [3] of 6.26 MEQ/L and an SODIUM [3] of 144.07 MEQ/L. For the same compound, the “TOTAL BILIRUBIN” value [3] was 0.17 mg/dL, the “TOTAL PROTEIN” value [3] was 6.43 G/DL and the “URIC ACID” value [3] was 2.13 mg/dL.
